Measured values: paper PMC4526365 (Nature structural & molecular biology, 2015)

Experiments:
[1] = biological target: T1, human intelectin-1 (hIntL-1) (Homo sapiens, UniProt Q8WWA0); test: competitive inhibition of hIntL-1 binding to β-Galf
Target sequence in this assay (Q8WWA0 19-298): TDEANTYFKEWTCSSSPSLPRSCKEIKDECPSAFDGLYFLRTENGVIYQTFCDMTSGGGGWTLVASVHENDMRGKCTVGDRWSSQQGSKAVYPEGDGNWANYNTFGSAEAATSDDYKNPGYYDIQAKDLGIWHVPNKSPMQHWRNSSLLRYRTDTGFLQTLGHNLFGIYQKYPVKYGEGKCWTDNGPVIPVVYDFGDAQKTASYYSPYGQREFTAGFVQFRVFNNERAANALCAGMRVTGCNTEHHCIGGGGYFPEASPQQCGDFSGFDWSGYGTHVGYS

[2] = biological target: T1, human intelectin-1 (hIntL-1); test: ELISA-like assay on immobilized biotinylated carbohydrate; type: binding
Target sequence in this assay (Q8WWA0 whole entry): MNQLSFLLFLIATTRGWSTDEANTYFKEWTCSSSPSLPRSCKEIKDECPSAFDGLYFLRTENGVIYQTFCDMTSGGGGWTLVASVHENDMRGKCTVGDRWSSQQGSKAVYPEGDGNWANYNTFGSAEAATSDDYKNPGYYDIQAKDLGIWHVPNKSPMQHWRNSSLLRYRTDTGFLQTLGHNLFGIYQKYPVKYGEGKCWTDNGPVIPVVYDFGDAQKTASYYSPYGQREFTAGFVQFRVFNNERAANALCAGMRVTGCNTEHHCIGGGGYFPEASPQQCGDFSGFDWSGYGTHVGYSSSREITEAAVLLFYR

Row | Kd [2] | Molecule | competitive inhibition of hIntL-1 binding to β-Galf [1]
1 | – | O=P(O)(O)OCC(O)CO (centres unmarked) [glycerol-1-phosphate] | glycerol and glycerol-1-phosphate— competitively inhibit the lectin from binding to β-Galf
2 | 85 ± 14 nM | β-D-Galf (biotinylated, immobilized) [β-Galf] | –
